Reference: article PMC11513892, “Discovery of a Series of Macrocycles as Potent Inhibitors of Leishmania Infantum” (Journal of Medicinal Chemistry, 2024)
Read-outs that look alike come from different tables or passages of the source.

Columns and labels:
L. infantum = assay: Growth of L. infantum in infected primary mouse macrophages (PMMs), phenotypic assay; assay type: cell-based, Leishmania infantum; settings: for EC50: Leishmania infantum, Macrophage; for loss in potency compared to 3, L. infantum: relative to compound 3
Description: (§1) We previously reported the synthesis of a series of macrocycles, including 1 (Figure 2A), designed to investigate how structural features influence molecular chameleonicity.[15],[21] Originating from the structural similarities between 1 and hymenocardine, we investigated 1 in screens for P. falciparum and four kinetoplastid parasites: T. b. brucei, T. b. rhodesiense, T. cruzi, and L. infantum. In the screens, we also included compounds 2 and 3 (Figure 2A), which were obtained from an intermediate late in the synthetic route to 1. Since very few validated protein targets relevant to clearance of parasites are known, phenotypic assays were used to investigate the antiparasitic activity for all five parasites. For malaria, the P. falciparum blood stage 3D7 strain was used to test the three compounds. For the two Trypanosoma brucei species, the reduction in trypomastigote growth in culture medium was determined after the addition of 1–3. For T. cruzi, the intracellular parasite growth in infected human fibroblasts (MRC-5 cell line) was assessed in the presence and absence of the three inhibitors. Similarly, the growth of L. infantum was assessed in infected primary mouse macrophages (PMMs) in the presence and absence of the inhibitors. […] The assays for T. cruzi and L. infantum are complex, i.e., they determine the degree of inhibition of parasitic replication in a mammalian cell line; this complexity may lead to a high variability for some compounds.
(§2) The potency of macrocycles 1–12 to inhibit the growth of L. infantum was determined in a phenotypic assay in which the parasite was grown in primary peritoneal mouse macrophages (PMMs). To understand whether the SAR for inhibition of parasitic growth is impacted by low cell permeability, the permeability of compounds 1–12 was determined separately. Madin-Darby canine kidney (MDCK) cells transfected with the human MDR1 (multidrug resistance 1) gene (MDCK-MDR1 cells) were used to determine permeabilities in the apical to basolateral direction (Papp AB) as well as efflux ratios (ERs). […] Lipophilicity (Log D at pH 7.4), aqueous kinetic solubility and mouse liver microsomal metabolism were also determined for 1–12, and are discussed separately (cf. physiochemical properties and ADMET, below).
(§3) The growth of the P. falciparum blood stage 3D7 strain,[53] the two T. brucei species in axenic cultures,[54]T. cruzi in infected human fibroblasts (MRC-5 cell line),[55] and of L. infantum in infected primary mouse macrophages (PMMs)[56] was determined as previously reported in the presence and absence of inhibitors 1–12.

T. b. brucei = assay: Growth of T. b. brucei trypomastigotes in axenic culture; assay type: cell-based; settings: Trypanosoma brucei
Description: as §1, §3

[1] = Chromatographic Log D at pH 7.4; assay type: physicochemical; settings: 1-octanol/PBS pH 7.4, determined by chromatography, mean of two measurements
Experimental: (§4) The kinetic solubility in phosphate buffered saline at pH 7.4, chromatographic Log D at pH 7.4, cell permeability across a MDCK-MDR1 cell monolayer at pH 7.4, and the clearance in mouse liver microsomes of 1–12 was determined at TCG Lifesciences.

[2] = Kinetic solubility in phosphate buffered saline at pH 7.4; assay type: physicochemical
Experimental: as §4

MRC-5 cells = assay: Host cell cytotoxicity in MRC-5 cells; assay type: cell-based, human; settings: CSV supplement; decimal comma
[3] = Clearance in mouse liver microsomes; assay type: in vitro ADME; settings: for microsomal CLint: mouse, liver microsomes
Experimental: as §4

[4] = system: primary mouse macrophages (PMMs); assay: Host cell cytotoxicity in primary mouse macrophages (PMM); assay type: cell-based; settings: CSV supplement; decimal comma
T. cruzi = assay: Intracellular growth of T. cruzi in infected human fibroblasts (MRC-5 cell line); assay type: cell-based; settings: Trypanosoma cruzi
Description: as §1, §3

T. b. rhodesiense = assay: Growth of T. b. rhodesiense trypomastigotes in axenic culture; assay type: cell-based, Trypanosoma brucei rhodesiense; settings: Trypanosoma brucei
Description: as §1, §3

MDR1 = assay: in vitro; assay type: in vitro ADME, canine; settings: dog; for Papp B→A: MDCK-MDR1, pH 7.4; for Papp A→B: MDCK-MDR1, pH 7.4, Papp AB
Experimental: as §2, §4

[5] = Clearance in human microsomes; assay type: in vitro ADME; settings: CSV supplement
Description: Supplement jm4c01370_si_002.csv, table | column: CLint in vitro Human Microsomes µL/min/mg; t(1/2) min

[6] = Table 1, mean (standard deviation, number of measurements), read-out: EC50 (μM), inhibition of the growth of L. infantum
[7] = CSV supplement, decimal comma, read-out: EC50 T.b. brucei Squib 427
[8] = Table S1, mean (SD), 2 to 14 measurements, unit not given in Table S1, read-out: In vitro potency, T. b. brucei
[9] = phosphate buffered saline, pH 7.4, CSV supplement, read-out: Kinetic solubility
[10] = phosphate buffered saline, pH 7.4, phosphate buffered saline pH 7.4, assay range 2.5–200 μM, read-out: solubility (kinetic)
[11] = CSV supplement, read-out: CLint in vitro Mouse Microsomes
[12] = incubation with mouse liver microsomes, read-out: CLint
[13] = MRC5, Table S1, mean (SD), 2 to 14 measurements, unit not given in Table S1, read-out: In vitro potency, T. cruzi
[14] = TULAHUEN, MRC5, read-out: EC50 T. cruzi Tulahuen C4 (LacZ)
[15] = RHODESIENSE / STIB900, CSV supplement, decimal comma, read-out: EC50 T.b. rhodesiense STIB 900
[16] = RHODESIENSE, Table S1, mean (SD), 2 to 14 measurements, unit not given in Table S1, read-out: In vitro potency, T. b. rhodesiense
[17] = MDCK-MDR1, pH 7.4, ER, efflux ratio (BA/AB)
[18] = MDCK-MDR1, pH 7.4, MDCK MDR1 - pH 7.4 Efflux Ratio
[19] = CSV supplement, decimal comma, read-out: EC50 L. infantum MHOM/MA(BE)/67

| Compound | EC50 (L. infantum; [6]) | EC50 (T. b. brucei; [7]) | EC50 (T. b. brucei; [8]) | chromatographic logD [1] | solubility kinetic [2, 9] | solubility kinetic [2, 10] | MRC-5 cells Human Lung Fibroblast Cells (cytotoxicity) (MRC-5 cells) | t(1/2), Mouse Microsomes ([3]; CSV supplement) | microsomal CLint [3, 11] | microsomal CLint [3, 12] | PMM Primary Mouse Macrophages (inf-LMPH) (cytotoxicity) [4] | EC50 (T. cruzi; [13]) | EC50 (T. cruzi; [14]) | EC50 (T. b. rhodesiense; [15]) | EC50 (T. b. rhodesiense; [16]) | Papp B→A (MDR1) | efflux ratio (MDR1; [17]) | efflux ratio (MDR1; [18]) | Papp A→B (MDR1) | EC50 (L. infantum; [19]) | further results |
| --- | --- | --- | --- | --- | --- | --- | --- | --- | --- | --- | --- | --- | --- | --- | --- | --- | --- | --- | --- | --- | --- |
| CCCCCCCCCCCCCCCCOP(=O)([O-])OCC[N+](C)(C)C [Miltefosine, miltefosine, reference compound] | 6.1 µM | – | – | – | – | – | – | – | – | – | – | – | – | – | – | – | – | – | – | – | – |
| CC(C)(C)C(=O)N[C@H]1Cc2ccc(cc2)Oc2ccc(cc2NC(=O)c2ccccn2)C(=O)CNC(=O)[C@H](Cc2ccccc2)NC1=O [Compound 12, tert-Butyl ((8S,11S)-8-Benzyl-4,7,10-trioxo-11-pivalamido-2-oxa-6,9-diaza-1,3(1,4)-dibenzenacyclododecaphane-3^2-yl)picolinamide] | 7.1 µM | 30.4 µM | 30 µM | 4.4 | 10.3 µg/mL | 16 µM | >64 µM | <3 min | > 578 µL/min/mg | > 580 µL/min/mg | >64 µM | 64 µM | > 64 µM | 21.3 µM | 21 µM | 31.8 ×10⁻⁶ cm/s | 21 | 20.8 | 1.5 ×10⁻⁶ cm/s | – | – |
| COc1ccc(C[C@H](NC(=O)OC(C)(C)C)C(=O)N[C@@H](Cc2ccccc2)C(=O)NCC(=O)c2cccc(NC(=O)c3ccccn3)c2)cc1 [Compound 4, tert-Butyl ((S)-3-(4-Methoxyphenyl)-1-oxo-1-(((S)-1-oxo-1-((2-oxo-2-(3-(picolinamido)phenyl)ethyl)amino)-3-phenylpropan-2-yl)amino)propan-2-yl)carbamate] | 38 µM | 32.7 µM | 33 µM | 4.7 | 4.9 µg/mL | 7.3 µM | >64 µM | <3 min | > 578 µL/min/mg | > 580 µL/min/mg | >64 µM | 64 µM | > 64 µM | 6.1 µM | – | 2.4 ×10⁻⁶ cm/s | – | – | – | – | activity in the L. infantum phenotypic screen (in words) (L. infantum; Table 1): inactive; t(1/2), Human Microsomes [5]: <3 min; microsomal CLint ([5]; human, microsomes, read-out: CLint in vitro Human Microsomes): > 578 µL/min/mg |
| CC(C)(C)OC(=O)N[C@H]1Cc2ccc(cc2)Oc2ccc(cc2NC(=O)c2ccccn2)C(=O)CNC(=O)[C@@H](Cc2ccccc2)NC1=O [Compound 8, tert-Butyl ((8R,11S)-8-Benzyl-4,7,10-trioxo-3^2-(picolinamido)-2-oxa-6,9-diaza-1,3(1,4)-dibenzenacyclododecaphane-11-yl)carbamate] | 8.2 µM | 8.1 µM | – | 4.8 | 1.9 µg/mL | 2.9 µM | >64 µM | <3 min | > 578 µL/min/mg | > 580 µL/min/mg | >64 µM | – | 6.1 µM | 6.4 µM | – | 22.3 ×10⁻⁶ cm/s | 7.6 | 7.6 | 2.9 ×10⁻⁶ cm/s | – | – |
| C[C@@H]1NC(=O)[C@@H](NC(=O)OC(C)(C)C)Cc2ccc(cc2)Oc2ccc(cc2NC(=O)c2ccccn2)C(=O)CNC1=O [Compound 7, tert-Butyl ((8S,11S)-8-Methyl-4,7,10-trioxo-3^2-(picolinamido)-2-oxa-6,9-diaza-1,3(1,4)-dibenzenacyclododecaphane-11-yl)carbamate] | 16 µM | 49 µM | – | 3.5 | 73.7 µg/mL | > 100 µM | >64 µM | 5,8 min | 297 µL/min/mg | 300 µL/min/mg | >64 µM | 36 µM | 35.5 µM | 9.7 µM | – | 39.3 ×10⁻⁶ cm/s | 28 | 28.3 | 1.4 ×10⁻⁶ cm/s | 15.5 µM | loss in potency compared to 3, L. infantum (L. infantum): ~10 fold; solubility kinetic ([2]; phosphate buffered saline pH 7.4, assay range 2.5–200 μM, read-out: solubility (kinetic)): 126 µM |
| CC(=O)N[C@H]1Cc2ccc(cc2)Oc2ccc(cc2NC(=O)c2ccccn2)C(=O)CNC(=O)[C@H](Cc2ccccc2)NC1=O [Compound 11] | 38 µM | 26.8 µM | 36 µM | 3.2 | 58.3 µg/mL | 96 µM | >64 µM | 12,9 min | 134 µL/min/mg | 130 µL/min/mg | >64 µM | – | 33 µM | 23.6 µM | 24 µM | 17.8 ×10⁻⁶ cm/s | – | – | 1.1 ×10⁻⁶ cm/s | 37.5 µM | loss in potency compared to 3, L. infantum (L. infantum): > 20 fold; efflux ratio (MDR1; MDCK-MDR1, pH 7.4, CSV supplement, pH 7.4, read-out: MDCK MDR1 - pH 7.4 Efflux Ratio): 15.7; efflux ratio (MDR1; MDCK-MDR1, pH 7.4, MDCK-MDR1 cell monolayer, read-out: ER, efflux ratio (BA/AB)): 16 |
